Measured values from patent publication US20250049801A1, “PHARMACEUTICAL COMBINATIONS FOR USE IN THE TREATMENT OF NEOPLASTIC DISEASES” (priority 2021, published 2025).
Marks after values point to notes of the source that are not given here.

Assays:
[1] = molecular target: T1, TTK kinase domain (amino acids 519-808) (Homo sapiens, UniProt P33981); assay: Target residence time assay (Biacore T200 surface plasmon resonance), TTK; type: binding; conditions: SPR, 22° C.
T1 construct: recombinant expressed TTK kinase domain (amino acids 519-808)
T1 sequence (P33981 519-808): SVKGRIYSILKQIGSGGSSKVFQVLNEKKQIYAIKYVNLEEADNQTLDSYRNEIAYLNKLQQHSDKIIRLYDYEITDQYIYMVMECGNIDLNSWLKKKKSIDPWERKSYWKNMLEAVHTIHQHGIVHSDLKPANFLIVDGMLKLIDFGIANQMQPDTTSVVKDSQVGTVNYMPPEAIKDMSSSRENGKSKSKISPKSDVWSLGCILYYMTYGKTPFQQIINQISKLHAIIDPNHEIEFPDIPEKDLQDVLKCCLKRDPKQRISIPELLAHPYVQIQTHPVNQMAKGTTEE
Procedure: (§1) The affinity, i.e. the equilibrium dissociation constant (KD) (referred to as residence times), of the compound of formula (I) against TTK and PLK1 were determined using a Biacore T200™ surface plasmon resonance instrument using recombinant expressed TTK kinase domain (amino acids 519-808) or biotinylated PLK1. The immobilization of TTK was performed as described in Maia et al. Annals of Oncology, 2015; 26:2180-2192. The immobilization of biotinylated PLK1 was performed as described in Willemsen-Seegers et al. Journal of Molecular Biology, 2017; 429:574-586. The subsequent single cycle kinetic assays were performed at 22° C. using a compound concentration gradient of 1, 3.6, 10, 31.6 and 100 nM for TTK and 10, 31.6, 100, 316 and 1000 nM for PLK1, a contact time of 100 s and a flow rate of […]. The dissociation period was 1200-1800 s and a correction for an unstable surface using a blank run with buffer was performed.

TNBC BR1282 PDX model = assay: Second PDX study, efficacy; type: in vivo, BALB/c nude mice; conditions: for Efficacy: ΔT/C Day 13: mean change in tumor volume on day 13; for Efficacy: ΔT/C Day 0 up to day 51: mean rate of growth (k), day 0 to culling day or day 51; for Cures By day 148: no tumors detectable by pathological confirmation at end of observation period, 8 mice per group
Procedure: (§2) The compound of formula (I) was supplied as a powder by Basilea Pharmaceutica International Ltd. and was prepared freshly as a solution in Ethanol: PEG400:Citric acid 20 mM, at a ratio of 1:1:8, for immediate administration.
(§3) The statistical significance of efficacy were determined in two different ways using a) the endpoint on day 16 or day 13 depending on the study when it was necessary to cull the vehicle group because of tumor volume exceeding 1500 mm3, and b) at the endpoint of day 42 or day 51 depending on the study (one week after the final treatment) when exponential curve fits were applied to estimate the rates of tumor growth in the different groups. Finally, the number of complete cures was compared across the groups following confirmation by histopathology within the first study. The degree of an effect was quantified by the delta (Δ) treated/control ratio (ΔT/C) and the statistical significance of the effect was determined by a one-way analysis of variance (1W-ANOVA) with Holms-Sidak applied post-hoc for multiple determinations, where a p-value of <0.05 was considered statistically significant. In addition, an assessment of synergy was made based upon the Clarkes Combination Index (CCI), where the CCI=ΔT/CAB−(ΔT/CA*ΔT/CB) in which A and B are two different compounds, where CCI<−0.1 indicates synergy (or a positive interaction), +0.1 (antagonism, or a negative interaction) and between −0.1 and +0.1 indicates additivity (no interaction); see O'Reilly et al. Anti Cancer Drugs 2011; 22:58-78.

[2] = Single-dose pharmacokinetic drug-drug interaction experiment; type: in vivo; conditions: 8 mg/kg i.v., 1 h after paclitaxel (15 mg/kg, i.v.); non tumor-bearing mice
tumor-derived TTK = molecular target: T2, tumor-derived TTK (Homo sapiens, UniProt P33981); assay: Tumor TTK target occupancy in MDA-MB-231 xenograft-bearing mice; type: in vivo
T2 construct: from tissue; host or cells: MDA-MB-231 xenograft tumours from mice
T2 sequence (P33981 1-857): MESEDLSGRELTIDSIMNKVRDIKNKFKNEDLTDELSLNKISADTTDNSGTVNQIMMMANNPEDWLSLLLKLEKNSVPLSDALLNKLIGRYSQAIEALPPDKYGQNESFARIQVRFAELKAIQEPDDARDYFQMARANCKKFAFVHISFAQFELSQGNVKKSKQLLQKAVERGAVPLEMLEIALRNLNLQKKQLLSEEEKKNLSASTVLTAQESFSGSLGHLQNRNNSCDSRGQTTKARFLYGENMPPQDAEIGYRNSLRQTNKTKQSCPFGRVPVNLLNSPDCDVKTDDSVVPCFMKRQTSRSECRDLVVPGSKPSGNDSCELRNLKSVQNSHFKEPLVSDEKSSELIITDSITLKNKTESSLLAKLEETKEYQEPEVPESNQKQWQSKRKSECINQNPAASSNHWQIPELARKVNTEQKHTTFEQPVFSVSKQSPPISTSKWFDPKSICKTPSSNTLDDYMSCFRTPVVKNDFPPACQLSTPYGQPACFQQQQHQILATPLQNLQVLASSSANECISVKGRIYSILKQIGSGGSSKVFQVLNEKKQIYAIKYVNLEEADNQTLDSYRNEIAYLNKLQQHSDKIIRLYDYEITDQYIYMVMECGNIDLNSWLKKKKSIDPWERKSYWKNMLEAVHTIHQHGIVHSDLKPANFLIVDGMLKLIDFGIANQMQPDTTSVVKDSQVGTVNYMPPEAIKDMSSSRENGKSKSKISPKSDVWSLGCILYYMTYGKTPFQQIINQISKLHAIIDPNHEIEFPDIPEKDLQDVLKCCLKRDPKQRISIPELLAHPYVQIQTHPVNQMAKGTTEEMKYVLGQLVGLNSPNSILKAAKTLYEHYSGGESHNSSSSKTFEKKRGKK
Procedure: Prolonged TTK target occupancy was also measured in tumors derived from MDAMB-231 xenograft-bearing mice treated with intermittent i.v. dosing regimen of compound of formula (I). […]

[3] = system: patient-derived xenograft (PDX) triple negative breast cancer (TNBC) tumor, BR1282; assay: First PDX study, efficacy; type: in vivo, BALB/c nude mice; conditions: for Efficacy: ΔT/C Day 16: mean change in tumor volume on day 16; for Efficacy: ΔT/C Day −0 up to Day 42: mean rate of growth (k), exponential curve fits, day 0 to culling day or day 42; for Cures Day 97: no tumors detectable by H&E staining of skin on day 97, N=8 mice/group
Procedure: as §2, §3

PLK1 [4] = molecular target: T3, PLK1 (Homo sapiens, UniProt P53350); assay: Radiometric protein kinase assay (33PanQinase Activity Assay), PLK1; type: biochemical; conditions: radiometric 33PanQinase assay; ATP 1 mM
T3 sequence (P53350 whole entry, the tested form may be a part): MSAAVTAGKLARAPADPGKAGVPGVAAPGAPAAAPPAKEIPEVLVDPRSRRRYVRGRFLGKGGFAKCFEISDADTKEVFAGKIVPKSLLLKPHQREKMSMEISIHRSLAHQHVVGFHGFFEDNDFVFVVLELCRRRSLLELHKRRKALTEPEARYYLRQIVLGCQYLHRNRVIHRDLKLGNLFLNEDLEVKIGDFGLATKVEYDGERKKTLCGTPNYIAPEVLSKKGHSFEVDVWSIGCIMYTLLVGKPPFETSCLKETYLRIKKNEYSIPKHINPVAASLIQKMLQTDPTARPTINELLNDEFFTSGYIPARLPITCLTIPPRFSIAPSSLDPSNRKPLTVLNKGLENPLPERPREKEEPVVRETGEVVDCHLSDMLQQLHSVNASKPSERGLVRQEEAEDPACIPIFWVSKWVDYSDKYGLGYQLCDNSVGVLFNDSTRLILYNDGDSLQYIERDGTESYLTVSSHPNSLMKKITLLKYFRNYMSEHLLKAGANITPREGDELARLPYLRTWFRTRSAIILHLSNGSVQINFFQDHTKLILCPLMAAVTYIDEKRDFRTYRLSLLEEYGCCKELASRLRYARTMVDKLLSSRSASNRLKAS
Procedure: (§4) A radiometric protein kinase assay (33PanQinase® Activity Assay) was used for measuring the kinase activity of TTK and PLK1. TTK and PLK1 protein kinases were expressed as recombinant full-length GST-fusion proteins. The reaction cocktail contained […] of enzyme/substrate mixture. The assay for the protein kinases contained 70 mM HEPES-NaOH pH 7.5, 3 mM MgCl2, 3 mM MnCl2, 3 mM Na-orthovanadate, 1.2 mM DTT, […] PEG20000, ATP (0.3 mM for TTK and 1 mM for PLK1), [γ-33P]-ATP (approx. 8×10^5 cpm per well), protein kinase (15.8 nM for TTK and 5 nM for PLK1), and substrate (1 mg/50 mL for TTK and 2 mg/50 mL for PLK1). All assays were performed with a Beckman-Coulter/SAGIAN™ Core System. The fitting model for the IC50 determinations was “Sigmoidal response (variable slope)” with parameters “top” fixed at 100% and “bottom” at 0%. The fitting method used was a least squares fit.

TTK [5] = molecular target: T4, TTK (Homo sapiens, UniProt P33981); assay: Radiometric protein kinase assay (33PanQinase Activity Assay), TTK; type: biochemical; conditions: radiometric 33PanQinase assay; ATP 0.3 mM
T4 construct: TTK and PLK1 protein kinases were expressed as recombinant full-length GST-fusion proteins; GST
T4 sequence (P33981 1-857): T2 sequence (P33981 1-857)
Procedure: as §4

[6] = system: triple negative breast cancer cell lines; assay: 5-day anti-proliferative screen of 18 triple negative breast cancer cell lines; type: cell-based; conditions: 120 h, 18 different triple negative breast cancer cell lines, read-out: median GI50
Text: (§5) In cellular systems, the compound of formula (I) has high potency against sensitive cells.

[7] = system: patient-derived tumor xenografts, including TNBC and hepatocellular cancer (HCC) models; assay: Patient-derived tumor xenografts in mice (data not shown); type: in vivo
Text: as §5

[8] = mouse, in vivo
Procedure: Dosing was delayed by 1 day in any mice showing transient body weight loss of ≥ 10% at any time point.
(§6) Body weights and tumor volumes were determined at least twice per week, the latter by measuring two dimensions with calipers and applying the formula “V=(L×W2)/2”, where V is the tumor volume, and L and W are the tumor length and width respectively. […] Mice were also culled if the BWL was determined to be >15% for 3 consecutive days. Any mice with >10% BWL, automatically were dosed on one of the following days, as soon as the BWL returned to <10%. All animal protocols were reviewed and approved by the relevant local committees in China, where the studies were performed.

TTK [9] = molecular target: T4, TTK; assay: TTK kinase assay as described in WO 2015/155042; type: biochemical; conditions: when measured as described in WO 2015/155042
biotinylated PLK1 = molecular target: T5, biotinylated PLK1 (Homo sapiens, UniProt P53350); assay: Target residence time assay (Biacore T200 surface plasmon resonance), PLK1; type: binding; conditions: SPR, 22° C.
T5 construct: biotin (biotinylated)
T5 sequence (P53350 whole entry): as the sequence (P53350 whole entry, the tested form may be a part) above
Procedure: as §1

other kinase = assay: Kinase specificity, other kinases versus TTK; type: biochemical
PLK1 [10] = molecular target: T3, PLK1; assay: PLK1 kinase assay as described in WO 2015/155042; type: biochemical; conditions: when measured as described in WO 2015/155042
[11] = for Tolerability (Day 16) ΔBW (%) / Tolerability (Day 16) ΔT/C: mouse, in vivo
Procedure: In a first PDX study female BALB/c nude mice (CrownBio) of at least 20 g body weight were subcutaneously (s.c.) inoculated in the right flank with tumor fragments (3*3*3 mm) from stock mice bearing the patient-derived xenograft (PDX) triple negative breast cancer (TNBC) tumor, BR1282. Randomization into 5 different treatment groups (8 mice per group) was made when the mean tumor size was 150-200 mm3. […] The fifth group received both vehicles using the time interval of 4 h and all groups were dosed twice via the tail vein. Dosing was delayed by 1 day in any mice showing transient body weight loss of ≥ 10% at any time point.
as §6

COc1cc(N2CCNCC2)ccc1Nc1ncc2c(n1)-n1ccc(C(=O)Nc3c(C)cccc3C)c1CC2 [Compound of formula (I)]
target-residency on TTK [1]: > 12 h | animals indicating regression (TNBC BR1282 PDX model; day 51): 3/8 | Efficacy: ΔT/C Day 13 (TNBC BR1282 PDX model): 0.32 | Efficacy: ΔT/C Day 0 up to day 51 (TNBC BR1282 PDX model): −0.02*** | Cures By day 148 (TNBC BR1282 PDX model): 0/8 | change in plasma AUC of the compound of formula (I) [2]: slight nonsignificant increase | time TTK completely occupied after last dose (tumor-derived TTK; i.v. twice-weekly, MTD dose): at least 72 h | time tumor-derived TTK fully drug-occupied after last administration (tumor-derived TTK; i.v. weekly MTD dosing): up to 6 days | Efficacy: ΔT/C Day 16 [3]: 0.45 | Efficacy: ΔT/C Day −0 up to Day 42 [3]: 0.28*** | Cures Day 97 [3]: 0/8 | IC50 (PLK1 [4]): 0.072 µM | IC50 (TTK [5]): 0.007 µM | GI50 [6]: 0.035 µM | activity against patient-derived tumor xenografts [7]: significant activity | Tolerability (Day 13) ΔBW (%) [8]: −1.9 ± 1.4% | Tolerability (Day 13) ΔT/C [8]: 0.93 | IC50 (TTK [9]): 0.0004 µM | target-residency on PLK1 (biotinylated PLK1): a few minutes | other kinase IC50s higher than those for TTK (other kinase): at least 10 fold | IC50 (PLK1 [10]): 0.046 µM | mortality ([11]; day 21, considered non-drug-related): one mouse died | Tolerability (Day 16) ΔBW (%) [11]: −0.3 ± 1.4% | Tolerability (Day 16) ΔT/C [11]: 1.01

CC(=O)O[C@H]1C(=O)[C@@]2(C)[C@H]([C@H](OC(=O)c3ccccc3)[C@]3(O)C[C@H](OC(=O)[C@H](O)[C@@H](NC(=O)c4ccccc4)c4ccccc4)C(C)=C1C3(C)C)[C@]1(OC(C)=O)CO[C@@H]1C[C@@H]2O [Paclitaxel, reference compound]
Efficacy: ΔT/C Day 13 (TNBC BR1282 PDX model): 0.48 | Efficacy: ΔT/C Day 0 up to day 51 (TNBC BR1282 PDX model): 0.63*** | Cures By day 148 (TNBC BR1282 PDX model): 0/8 | Efficacy: ΔT/C Day 16 [3]: 0.24 | Efficacy: ΔT/C Day −0 up to Day 42 [3]: 0.41*** | Cures Day 97 [3]: 0/8 | Tolerability (Day 13) ΔBW (%) [8]: 4.9 ± 0.3% | Tolerability (Day 13) ΔT/C [8]: 1.02 | Tolerability (Day 16) ΔBW (%) [11]: −1.0 ± 1.2% | Tolerability (Day 16) ΔT/C [11]: 1.00
